Source: patent US20030161867A1, “Skin-permeable selective cyclooxygenase-2 inhibitor composition” (priority 2001, published 2003)
Values joined by “and” are separate entries in the source; they are usually repeats but may differ in a detail not shown here. Equal entries are not always repeated.

Experiments:
[1] = Skin permeation (skin flux) in Franz diffusion cell; assay type: in vitro ADME, human; settings: for Normalized skin flux: normalized to a standard run on each skin lot
Experimental: Suitable receptor fluids can be selected by one of skill in the art, but presently preferred receptor fluids are a 1% polysorbate 80 solution and a 6% polyethylene glycol (20) oleyl ether (oleth-20) solution. The receptor fluid is maintained at a suitable temperature, preferably a temperature approximating living human skin temperature. A receptor fluid temperature of 32° C. has been found suitable. The membrane is oriented so that its internal surface, i.e., the surface opposite the epidermal surface, is placed in contact with the receptor fluid. Air bubbles are removed from the receptor fluid, which is then allowed to equilibrate for 30 minutes with the membrane. A test sample of a composition is placed in contact with the epidermal surface of the membrane, and left in place for a desired period, for example 24 hours. […] The receptor compartment of the Franz diffusion cell was filled with the receptor fluid and the diffusion cell was maintained at 32° C. The membrane was mounted on the receptor compartment, covered and fastened with a clamp. Air bubbles were removed from the receptor fluid, which was allowed to equilibrate for 30 minutes. A test composition was brought into contact with the membrane. […] Each test was conducted in several replicates.

[2] = Drug concentration of saturated solutions; assay type: physicochemical
Experimental: Saturated solutions of celecoxib were prepared in the following solvents: 70% aqueous ethanol (EtOH), ethanol, PEG-400 and propylene glycol (PG). The solutions were tested for skin permeation properties as described above, using 250 μl drops of each test solution.
Since different lots of skin were used to determine the skin flux of each compound, a standard was run on each skin lot and the data were normalized.
The solutions were tested for skin permeation properties as described above.

[3] = molecular target: COX-1 (Homo sapiens, UniProt P23219); settings: in vitro; cited from earlier work
Chain of COX-1 (P23219 24-599): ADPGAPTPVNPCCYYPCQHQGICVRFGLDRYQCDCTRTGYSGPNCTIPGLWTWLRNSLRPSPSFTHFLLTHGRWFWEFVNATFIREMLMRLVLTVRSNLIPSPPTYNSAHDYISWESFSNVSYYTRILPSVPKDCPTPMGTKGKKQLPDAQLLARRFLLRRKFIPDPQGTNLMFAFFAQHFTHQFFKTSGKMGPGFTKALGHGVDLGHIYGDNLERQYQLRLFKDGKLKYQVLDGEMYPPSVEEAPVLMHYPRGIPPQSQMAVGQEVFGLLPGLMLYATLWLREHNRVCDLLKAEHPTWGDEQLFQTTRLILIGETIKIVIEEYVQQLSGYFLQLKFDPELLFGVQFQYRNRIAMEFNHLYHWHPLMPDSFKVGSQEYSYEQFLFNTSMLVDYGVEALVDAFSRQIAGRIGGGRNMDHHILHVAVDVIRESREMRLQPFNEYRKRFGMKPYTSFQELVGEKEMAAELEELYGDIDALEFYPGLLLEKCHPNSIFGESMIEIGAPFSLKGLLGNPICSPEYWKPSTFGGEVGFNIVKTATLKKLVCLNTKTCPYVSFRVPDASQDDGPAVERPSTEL

[4] = Distribution of drug in epidermis and dermis after Franz cell skin permeation test; assay type: in vitro ADME, human
Excerpt: As a way of measuring the skin permeation properties of selective COX-2 inhibitory drugs or prodrugs in dermally deliverable pharmaceutical compositions, a Franz diffusion cell was provided utilizing a human cadaver skin membrane and a 1% polysorbate 80 (Tween™ 80) solution as a receptor fluid. Frozen skin was thawed at room temperature and punched with a 20 mm puncher to provide a membrane. The receptor compartment of the Franz diffusion cell was filled with the receptor fluid and the diffusion cell was maintained at 32° C. The membrane was mounted on the receptor compartment, covered and fastened with a clamp. Air bubbles were removed from the receptor fluid, which was allowed to equilibrate for 30 minutes. A test composition was brought into contact with the membrane. The amount of drug which permeated through the membrane in a 24 hour period was determined by HPLC analysis of the receptor fluid. Each test was conducted in several replicates.
Distribution of drug in epidermis and dermis was also determined. Results are shown in Table 6, by comparison with the solution compositions of Examples 1 and 2.

[5] = Skin permeation (skin flux) in Franz diffusion cell; assay type: in vitro ADME, human; settings: saturated aqueous solution, 50° C.
[6] = molecular target: T1, COX-2 (Homo sapiens, UniProt P35354); settings: in vitro; cited from earlier work
T1 sequence (P35354 18-604): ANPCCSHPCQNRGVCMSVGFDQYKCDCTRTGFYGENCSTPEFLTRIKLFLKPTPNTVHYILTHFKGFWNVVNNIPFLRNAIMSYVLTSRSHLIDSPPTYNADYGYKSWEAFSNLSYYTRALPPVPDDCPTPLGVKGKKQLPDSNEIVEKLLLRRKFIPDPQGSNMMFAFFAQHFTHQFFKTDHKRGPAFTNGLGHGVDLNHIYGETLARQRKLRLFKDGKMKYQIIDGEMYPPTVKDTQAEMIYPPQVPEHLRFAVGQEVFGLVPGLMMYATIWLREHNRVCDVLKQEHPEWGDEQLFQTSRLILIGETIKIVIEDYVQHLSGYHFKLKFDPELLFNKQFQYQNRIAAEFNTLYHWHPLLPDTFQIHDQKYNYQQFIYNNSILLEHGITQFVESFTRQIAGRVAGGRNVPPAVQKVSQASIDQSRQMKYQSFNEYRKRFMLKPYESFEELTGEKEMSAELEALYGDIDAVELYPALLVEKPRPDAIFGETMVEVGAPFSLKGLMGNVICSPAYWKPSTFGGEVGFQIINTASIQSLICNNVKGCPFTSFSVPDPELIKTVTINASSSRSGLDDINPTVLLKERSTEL

[7] = 5% oleyl alcohol and 3% thymol in 70% aqueous ethanol, versus skin flux data in Table 2
[8] = saturated solution in 70% aqueous ethanol containing 5% oleyl alcohol and 3% thymol, 250 μl
[9] = saturated solution in 70% aqueous ethanol, 250 μl, occlusive, 24 hour period, 32° C.
[10] = saturated solution in 70% aqueous ethanol
[11] = Valdecoxib + parecoxib Na composition: saturated valdecoxib in 67% aqueous ethanol containing 5% parecoxib sodium
[12] = gel, 1% drug (10 mg/ml) in 70% aqueous ethanol with 3% Klucel, 50 mg applied, non-occlusive
[13] = saturated aqueous solution, 32° C.
[14] = saturated solution in 70% aqueous ethanol, skin donor 3
[15] = saturated solution in 70% aqueous ethanol, skin donor 4
[16] = saturated solution in PEG-400, 250 μl, 24 hour period
[17] = saturated solution in ethanol (EtOH), 250 μl, 24 hour period
[18] = saturated solution in propylene glycol (PG), 250 μl, 24 hour period
[19] = with 5% parecoxib sodium in 67% aqueous ethanol, versus Table 2 data in absence of parecoxib sodium
[20] = gel, 1% drug in 70% aqueous ethanol with 3% Klucel, 50 mg, non-occlusive
[21] = saturated solution in 70% aqueous ethanol, 250 μl, occlusive
[22] = Celecoxib + parecoxib Na composition: saturated celecoxib in 67% aqueous ethanol containing 5% parecoxib sodium

Enhancement factor [1, 7] | Skin flux [1, 8] | Normalized skin flux [1, 10] | Concentration [2, 10] | Skin flux [1, 13] | Skin flux [5] | Compound | Skin flux [1, 9] | inhibitory activity against COX-1 [3] | Skin flux [1, 11] | Skin flux [1, 12] | Skin flux [1, 14] | Skin flux [1, 15] | Skin flux [1, 16] | Skin flux [1, 17] | Skin flux [1, 18] | Enhancement factor [1, 19] | Drug in dermis [4, 20] | Drug in epidermis [4, 20] | Drug in dermis [4, 21] | Drug in epidermis [4, 21] | also measured
4.8 | 1210 ± 58.0^ μg/cm^2 · day | 120.0 μg/cm^2 · day | 386000 µg/mL |  |  | CCC(=O)NS(=O)(=O)c1ccc(-c2c(-c3ccccc3)noc2C)cc1 [parecoxib Na] | 254 ± 164 μg/cm^2 · day |  |  |  |  |  |  |  |  |  |  |  |  |  | 
 |  |  |  | 8.62 ± 1.94 μg/cm^2 · day | 47.16 ± 3.70 μg/cm^2 · day | CCC(=O)NS(=O)(=O)c1ccc(-c2c(-c3ccccc3)noc2C)cc1 [parecoxib, N-[[4-(5-methyl-3-phenylisoxazol-4-yl)phenyl]sulfonyl]propanamide] |  | weak in vitro inhibitory activity | 64.1 ± 11.3 μg/cm^2 · day |  |  |  |  |  |  |  |  |  |  |  | Skin flux [1, 22]: 74.7 ± 14.7 μg/cm^2 · day; Concentration ([2]; saturated aqueous solution): 50.8 µg/mL; inhibitory activity against COX-2 [6]: weak in vitro inhibitory activity
1.4 | 21.7 ± 4.6 μg/cm^2 · day | 34.9 μg/cm^2 · day | 15200 µg/mL | 4.27 ± 0.84 μg/cm^2 · day | 23.71 ± 4.42 μg/cm^2 · day | Cc1ccc(-c2cc(C(F)(F)F)nn2-c2ccc(S(N)(=O)=O)cc2)cc1 [celecoxib, 4-[5-(4-methylphenyl)-3-(trifluoromethyl)-1H-pyrazol-1-yl]benzenesulfonamide] | 15.7 μg/cm^2 · day and 15.7 ± 3.83 μg/cm^2 · day |  |  | 3.82 ± 3.36 μg/cm^2 · day | 73.7 ± 11.8 μg/cm^2 · day | 31.9 ± 9.6 μg/cm^2 · day | No skin permeation | 5.62 ± 1.49 μg/cm^2 · day | No skin permeation | 11.5 | 1.22 ± 0.51 µg | 2.36 ± 1.06 µg | 2.50 ± 1.53 µg | 3.92 ± 0.79 µg | Skin flux [1, 22]: 183 ± 153 μg/cm^2 · day; Celecoxib permeation ([1]; saturated celecoxib solution in 70% ethanol, amount in receptor fluid after 15 hours): 1.406 ± 0.086 μg/cm^2; Skin flux ([1]; saturated solution in 70% aqueous ethanol, 250 μl, occlusive, 24 hour period, 32° C., listed as Celecoxib): 15.7 ± 3.83 μg/cm^2 · day; Skin flux ([1]; saturated solution in 70% aqueous ethanol, skin donor 1): 15.7 ± 3.8 μg/cm^2 · day; Skin flux ([1]; saturated solution in 70% aqueous ethanol, skin donor 6): 50.4 ± 12.7 μg/cm^2 · day; Skin flux ([1]; saturated solution in PEG-400, 250 μl, 24 hour period, listed as Celecoxib): ud; Skin flux ([1]; saturated solution in propylene glycol (PG), 250 μl, 24 hour period, listed as Celecoxib): ud; Concentration ([2]; saturated aqueous solution): 0.5 µg/mL; Concentration ([2]; saturated in 67% aqueous ethanol containing 5% parecoxib sodium): 15900 µg/mL; Concentration ([2]; saturated solution in PEG-400): 297000 µg/mL; Concentration ([2]; saturated solution in ethanol (EtOH)): 91400 µg/mL; Concentration ([2]; saturated solution in propylene glycol (PG)): 33300 µg/mL

Compound | Enhancement factor [1, 7] | Skin flux [1, 8] | Normalized skin flux [1, 10] | Concentration [2, 10] | Skin flux [1, 13] | Skin flux [5] | Skin flux [1, 9] | inhibitory activity against COX-1 [3] | Skin flux [1, 11] | Skin flux [1, 12] | Skin flux [1, 14] | Skin flux [1, 15] | Skin flux [1, 16] | Skin flux [1, 17] | Skin flux [1, 18] | Enhancement factor [1, 19] | Drug in dermis [4, 20] | Drug in epidermis [4, 20] | Drug in dermis [4, 21] | Drug in epidermis [4, 21] | also measured
Cc1onc(-c2ccccc2)c1-c1ccc(S(N)(=O)=O)cc1 [valdecoxib, 4-[5-methyl-3-phenylisoxazol-4-yl]benzenesulfonamide] | 25 | 323 ± 21 μg/cm^2 · day | 53.4 μg/cm^2 · day |  | 7.94 ± 0.89 μg/cm^2 · day | 42.12 ± 7.82 μg/cm^2 · day | 12.8 μg/cm^2 · day and 12.8 ± 4.96 μg/cm^2 · day | weak inhibitor | 108 ± 16.7 μg/cm^2 · day | 11.3 ± 6.48 μg/cm^2 · day | 91.9 ± 15.0 μg/cm^2 · day | 58.3 ± 11.0 μg/cm^2 · day | No skin permeation | 1.44 ± 0.54 μg/cm^2 · day | No skin permeation | 8.4 | ud | 1.81 ± 1.87 µg | 0.543 ± 0.525 µg | 9.27 ± 3.84 µg | Skin flux ([1]; saturated solution in 70% aqueous ethanol, 250 μl, occlusive, 24 hour period, 32° C., listed as Valdecoxib): 12.8 ± 4.96 μg/cm^2 · day; Skin flux ([1]; saturated solution in 70% aqueous ethanol, skin donor 2): 12.8 ± 5.0 μg/cm^2 · day; Skin flux ([1]; saturated solution in PEG-400, 250 μl, 24 hour period, listed as Valdecoxib): ud; Skin flux ([1]; saturated solution in propylene glycol (PG), 250 μl, 24 hour period, listed as Valdecoxib): ud
